{"source": "patent EP3298025B1", "about": "“NEW AMINO ACID SEQUENCES WITH MI[…] DERIVED FROM NAJA ATRA CARDIOTOXIN 1 (CTX-1)” (Università degli Studi di Parma, priority 2015, dated 2016)", "key": {"E. coli ML-35pYC": {"system": "E. coli ML-35pYC", "test": "membrane permeabilization assay (CENTA outer membrane, ONPG inner membrane)", "format": "cell-based", "conditions": "peptide 12.5 µg/ml; absorbance every 10 minutes for 240 minutes", "method": "Methods: to test the bacterial membrane permeabilization caused by the peptides of the invention, E. coli ML-35pYC strain was used. This bacterial strain express ampicillin resistence, a constitutive expression of cytoplasmic β-galactosidase and is engineered with a plasmid for a periplasmic β-lactamase synthesis. Sixty microliters (60 µl) of bacterial suspension, containing E. coli ML-35pYC strain, were added to 60 µl of ONPG solution (15 mM) or to 60 µl of CENTA (1,5 mM) diluted in phosphate buffer. Subsequently 120 µl of the examined peptide were added, to obtain a final concentration of 12.5 µg/ml (NCP-2=5,4 µM, NCP-3=5.2 µM). The absorbance value was registered at […] for ONPG and at 405 nm for CENTA, every 10 minutes for 240 minutes to assess the reaction's kinetics."}, "MRSA ATCC 43400": {"system": "MRSA ATCC 43400", "test": "micro-dilution in liquid medium and transplant on solid medium, Gram-positive bacteria", "format": "cell-based, Staphylococcus aureus", "conditions": "2 hours at 37°C, transplant on agar", "method": "(§1) For each bacterial strain 3-5 morphologically similar colonies from fresh cultures were taken and inoculated in Brain Heart Infusion broth, then incubated at 37°C in agitation at 225 r.p.m. for about 3-4 hours. Then the bacterial suspension was centrifuged at 1000 G for 20 minutes and the pellet resuspended in phosphate buffer pH 7, 10 mM. The turbidity of the bacterial suspension was measured using a spectrophotometer with absorbance of 600 nm; the range 0,08-0,13 equates to about 10^8 cfu/ml. The bacterial suspension was diluted 1:100 in phosphate buffer 10mM to obtain a bacterial concentration of about 10^6 cfu/ml. Within 30 minutes 50 µl of the suspension 10^6 cfu/ml were inoculated in each well of the microtiter plate, to obtain a bacterial concentration of about 5x10^5 cfu/ml.\nThe peptides ability to inhibit the bacterial growth in liquid cultures was tested. 50 µl of each peptides solutions of about 0.2-50 µM were added in microtiter plates with 96 wells with liquid culture medium and one of these bacterial strains: Staphylococcus aureus ATCC 25923, MRSA ATCC 43300, Streptococcus agalactiae ATCC 13813 and Enterococcus hirae ATCC 10541. […]\nThe bacterial suspension and differing peptides concentrations were put in contact for about 2 hours at 37°C. […] After an incubation time of 24 hours at 37°C, the bacterial colonies (cfu) were counted."}, "[1]": {"system": "Enterococcus hirae ATCC 10541", "test": "micro-dilution in liquid medium and transplant on solid medium, Gram-positive bacteria", "format": "cell-based", "conditions": "2 hours at 37°C, transplant on agar", "method": "as §1\n(§2) The peptides ability to inhibit the bacterial growth in liquid cultures was tested. 50 µl of each peptides solutions of about 0.2-50 µM were added in microtiter plates with 96 wells with liquid culture medium and one of these bacterial strains: Staphylococcus aureus ATCC 25923, MRSA ATCC 43300, Streptococcus agalactiae ATCC 13813 and Enterococcus hirae ATCC 10541. After 2 hours of incubation at 37°C, bacterial suspensions were put on solid culture medium. Bacterial cultures were cultivated without peptides as growth control.\n(§3) The bacterial suspension and differing peptides concentrations were put in contact for about 2 hours at 37°C. After this incubation, 20 µl from each well of the plate were transplanted on solid culture medium, Columbia agar with 5% of bovine erythrocytes for Gram-positive bacteria. The inoculum was evenly distributed on the agar medium with the aid of a sterile disposable handle. After an incubation time of 24 hours at 37°C, the bacterial colonies (cfu) were counted."}, "[2]": {"system": "Staphylococcus aureus ATCC 22953", "test": "micro-dilution in liquid medium and transplant on solid medium, Gram-positive bacteria", "format": "cell-based", "conditions": "2 hours at 37°C, transplant on agar", "method": "as §1, §2, §3"}, "[3]": {"system": "Streptococcus agalactiae ATCC 13813", "test": "micro-dilution in liquid medium and transplant on solid medium, Gram-positive bacteria", "format": "cell-based", "conditions": "2 hours at 37°C, transplant on agar", "method": "as §1, §2, §3"}, "[4]": {"system": "Pseudomonas aeruginosa ATCC 27853", "test": "antimicrobial activity in presence of NaCl", "format": "cell-based", "method": "(§4) Peptides were tested in the ability to inhibit bacterial growth in liquid medium. 50 µl of peptides at a concentration […] E. coli ATCC 25922, Pseudomonas aeruginosa ATCC 27853 and Staphylococcus aureus methicillin resistant ATCC 43300. After 2 hours incubation at 37°C, bacteria were plated on solid culture medium. Bacterial cultures were cultivated without peptides as growth control.\n(§5) The bacterial suspension and peptides at differing concentrations were put in contact for about 2 hours at 37°C. After this incubation, 20 µl from every well of the plate were transplanted on solid culture medium, McConkey agar for Gram-negative and Columbia agar with 5% of bovine erythrocytes for Gram-positive bacteria. The inoculum was evenly distributed on the agar medium using a single use sterile handle. After an incubation time of 24 hours at 37°C, the bacterial colonies (cfu) were counted."}, "MRSA ATCC 43300 [5]": {"system": "MRSA ATCC 43300", "test": "antimicrobial activity in presence of NaCl", "format": "cell-based, Staphylococcus aureus", "method": "as §4, §5"}, "E. coli ATCC 25922": {"system": "E. coli ATCC 25922", "test": "antimicrobial activity in presence of Muller-Hinton 20%", "format": "cell-based", "conditions": "20% of Muller-Hinton medium", "method": "(§6) This example verifies the peptides antimicrobial activity in presence of a concentration of 20% of Muller-Hinton liquid medium, characterized by the presence of salts with high concentration.\n(§7) Peptides were tested in the ability to inhibit bacterial growth in liquid medium. 50 µl of peptides at a concentration between 3.1 µg/ml (NCP-0=1.4µM; NCP-2=[…]; NCP-3=1.3 µM) and 100 µg/ml (NCP-0=46.3 µM; NCP-2=43.2 µM; NCP-3=41.6 µM) were added in microtiter plate wells with phosphate buffer 10 mM with Muller-Hinton liquid medium al the final concentration of 20% and one of these bacteria: E. coli ATCC 25922, Pseudomonas aeruginosa ATCC 27853, Staphylococcus aureus ATCC 25923 and Staphylococcus aureus methicillin resistant ATCC 43300. After 2 hours incubation at 37°C, bacteria were transplanted on solid culture medium. Bacterial cultures were cultivated without peptides as growth control."}, "[6]": {"system": "Pseudomonas aeruginosa ATCC 27853", "test": "antimicrobial activity in presence of Muller-Hinton 20%", "format": "cell-based", "conditions": "20% of Muller-Hinton medium", "method": "as §6, §7"}, "[7]": {"system": "Staphylococcus aureus ATCC 25923", "test": "antimicrobial activity in presence of Muller-Hinton 20%", "format": "cell-based", "conditions": "20% of Muller-Hinton medium", "method": "as §6, §7"}, "MRSA ATCC 43300 [8]": {"system": "MRSA ATCC 43300", "test": "antimicrobial activity in presence of Muller-Hinton 20%", "format": "cell-based, Staphylococcus aureus", "conditions": "20% of Muller-Hinton medium", "method": "as §6, §7"}, "[9]": {"conditions": "125 mM NaCl, peptide 12.5 µg/ml"}, "[10]": {"conditions": "250 mM NaCl, peptide 12.5 µg/ml"}}, "note": "Where “and” joins values, the source holds several entries; their conditions need not be identical. Equal values may be shown once. Residues, ends and D or L forms follow the SMILES beside them.", "data": [{"smiles": "CC[C@H](C)[C@H](NC(=O)[C@H](CCCCN)NC(=O)[C@H](Cc1ccc(O)cc1)NC(=O)[C@H](CS)NC(=O)[C@H](CC(C)C)NC(=O)[C@H](CC(N)=O)NC(=O)[C@H](CCCCN)NC(=O)CNC(=O)[C@H](C)NC(=O)[C@@H]1CCCN1C(=O)[C@H](CS)NC(=O)[C@@H](NC(=O)[C@H](CCCCN)NC(=O)[C@H](CO)NC(=O)[C@H](C)NC(=O)[C@@H](NC(=O)[C@@H]1CCCN1C(=O)[C@@H](NC(=O)[C@H](CC(C)C)NC(=O)[C@@H](N)CCCCN)[C@@H](C)CC)[C@@H](C)CC)[C@@H](C)O)C(=O)O", "note": "[NCP-0, K LIPIA SKT CPA GKN LCY KI] (H-KLIPIASKTCPAGKNLCYKI-OH; N-terminus and C-terminus assumed)", "values": [{"measurement": "damage to the inner membrane (ONPG)", "setting": "E. coli ML-35pYC", "result": "had not demonstrated activity on outer or inner membrane"}, {"measurement": "damage to the outer membrane (CENTA)", "setting": "E. coli ML-35pYC", "result": "had not demonstrated activity on outer or inner membrane"}, {"measurement": "LD90", "setting": "MRSA ATCC 43400", "result": "> 100 µg/ml and > 46.3 µM"}, {"measurement": "LD99", "setting": "MRSA ATCC 43400", "result": "> 200 µg/ml and > 92.6 µM"}, {"measurement": "LD90", "setting": "[1]", "result": "> 100 µg/ml and > 46.3 µM"}, {"measurement": "LD99", "setting": "[1]", "result": "> 200 µg/ml and > 92.6 µM"}, {"measurement": "LD90", "setting": "[2]", "result": "> 100 µg/ml and > 46.3 µM"}, {"measurement": "LD99", "setting": "[2]", "result": "> 200 µg/ml and > 92.6 µM"}, {"measurement": "LD90", "setting": "[3]", "result": "100 µg/ml and 46.3 µM"}, {"measurement": "LD99", "setting": "[3]", "result": "> 100 µg/ml and > 46.3 µM"}, {"measurement": "Antimicrobial activity (% to control)", "setting": "[4]; 10 mM NaCl, peptide 12.5 µg/ml", "result": 0, "unit": "%"}, {"measurement": "Antimicrobial activity (% to control)", "setting": "[4]; 10 mM NaCl, peptide 100 µg/ml", "result": 2, "unit": "%"}, {"measurement": "Antimicrobial activity (% to control)", "setting": "[4]; [9]", "result": 0, "unit": "%"}, {"measurement": "Antimicrobial activity (% to control)", "setting": "[4]; 125 mM NaCl, peptide 100 µg/ml", "result": 0, "unit": "%"}, {"measurement": "Antimicrobial activity (% to control)", "setting": "[4]; [10]", "result": 0, "unit": "%"}, {"measurement": "Antimicrobial activity (% to control)", "setting": "[4]; 250 mM NaCl, peptide 100 µg/ml", "result": 0, "unit": "%"}, {"measurement": "Antimicrobial activity (% to control)", "setting": "MRSA ATCC 43300 [5]; 10 mM NaCl, peptide 12.5 µg/ml", "result": 0, "unit": "%"}, {"measurement": "Antimicrobial activity (% to control)", "setting": "MRSA ATCC 43300 [5]; 10 mM NaCl, peptide 100 µg/ml", "result": 2, "unit": "%"}, {"measurement": "Antimicrobial activity (% to control)", "setting": "MRSA ATCC 43300 [5]; [9]", "result": 0, "unit": "%"}, {"measurement": "Antimicrobial activity (% to control)", "setting": "MRSA ATCC 43300 [5]; 125 mM NaCl, peptide 100 µg/ml", "result": 0, "unit": "%"}, {"measurement": "Antimicrobial activity (% to control)", "setting": "MRSA ATCC 43300 [5]; [10]", "result": 0, "unit": "%"}, {"measurement": "Antimicrobial activity (% to control)", "setting": "MRSA ATCC 43300 [5]; 250 mM NaCl, peptide 100 µg/ml", "result": 0, "unit": "%"}, {"measurement": "Antimicrobial activity (% to control)", "setting": "E. coli ATCC 25922; peptide 3.1 µg/ml", "result": 0, "unit": "%"}, {"measurement": "Antimicrobial activity (% to control)", "setting": "E. coli ATCC 25922; peptide 6.3 µg/ml", "result": 0, "unit": "%"}, {"measurement": "Antimicrobial activity (% to control)", "setting": "E. coli ATCC 25922; peptide 12.5 µg/ml", "result": 0, "unit": "%"}, {"measurement": "Antimicrobial activity (% to control)", "setting": "E. coli ATCC 25922; peptide 100 µg/ml", "result": 0, "unit": "%"}, {"measurement": "Antimicrobial activity (% to control)", "setting": "[6]; peptide 3.1 µg/ml", "result": 0, "unit": "%"}, {"measurement": "Antimicrobial activity (% to control)", "setting": "[6]; peptide 6.3 µg/ml", "result": 0, "unit": "%"}, {"measurement": "Antimicrobial activity (% to control)", "setting": "[6]; peptide 12.5 µg/ml", "result": 0, "unit": "%"}, {"measurement": "Antimicrobial activity (% to control)", "setting": "[6]; peptide 100 µg/ml", "result": 0, "unit": "%"}, {"measurement": "Antimicrobial activity (% to control)", "setting": "[7]; peptide 3.1 µg/ml", "result": 0, "unit": "%"}, {"measurement": "Antimicrobial activity (% to control)", "setting": "[7]; peptide 6.3 µg/ml", "result": 0, "unit": "%"}, {"measurement": "Antimicrobial activity (% to control)", "setting": "[7]; peptide 12.5 µg/ml", "result": 0, "unit": "%"}, {"measurement": "Antimicrobial activity (% to control)", "setting": "[7]; peptide 100 µg/ml", "result": 0, "unit": "%"}, {"measurement": "Antimicrobial activity (% to control)", "setting": "MRSA ATCC 43300 [8]; peptide 3.1 µg/ml", "result": 0, "unit": "%"}, {"measurement": "Antimicrobial activity (% to control)", "setting": "MRSA ATCC 43300 [8]; peptide 6.3 µg/ml", "result": 0, "unit": "%"}, {"measurement": "Antimicrobial activity (% to control)", "setting": "MRSA ATCC 43300 [8]; peptide 12.5 µg/ml", "result": 0, "unit": "%"}, {"measurement": "Antimicrobial activity (% to control)", "setting": "MRSA ATCC 43300 [8]; peptide 100 µg/ml", "result": 0, "unit": "%"}]}]}
